{
  "source": "paper PMC12661054",
  "about": "“The CIP2A-TOPBP1 axis facilitates mitotic DNA repair via MiDAS and MMEJ” (Nature Communications, 2025)",
  "key": {"eGFP-SLX4 and MUS81": {"tested_on": "eGFP-SLX4 and MUS81", "experiment": "Chromatin residency of eGFP-SLX4 and MUS81 (chromatin-fraction co-IP)", "format": "cell-based, human", "conditions": "acute CDK1 inhibition, eGFP-SLX4 Co-IP from mitotic chromatin", "description": "Cell pellets stored at −80 °C were thawed on ice, followed by addition of ten volumes to 1 NIB-250 (15 mM Tris-HCL (pH 7.5), 60 mM KCl, 15 mM NaCl, 5 mM MgCl2, 1 mM CaCl2, 250 mM sucrose) containing 1 mM DTT, 1x cOmplete, EDTA-free Protease Inhibitor +0.3% NP. The cells were mixed by pipetting gently and then incubated on ice for 10 min. The cell pellet was then centrifuged at 400–600 x g for 5 min at 4 °C. The supernatant was transferred to a separate tube (cytoplasmic fraction). The nuclei pellet was then resuspended in ten volumes of 10:1 NIB-250 without detergent containing 1 mM DTT and 1x cOmplete, EDTA-free Protease Inhibitor. The nuclei were then pelleted by centrifugation at 400–600 x g for 5 min at 4 °C and the supernatant was discarded. The pellet was then resuspended 7 volumes relative to pellet volume of hypotonic buffer (3 mM EDTA, 0.2 mM EGTA containing 1 mM DTT and 1x cOmplete, EDTA-free Protease Inhibitor) and incubated on ice for 30 min, vortexing every 5 min. The insoluble chromatin fraction was collected by centrifugation for 4 min at 1700 x g. The supernatant, was retained, containing the nucleoplasm fraction. The chromatin pellet was washed with hypotonic buffer containing 1 mM DTT and protease inhibitors and the above centrifugation was repeated. The supernatant was discarded and the pellet retained and used as starting material for immunoprecipitation experiments. […]"}, "RPE1 p53-/- cells": {"tested_on": "RPE1 p53-/- cells", "experiment": "Immunofluorescence foci, RPE1 p53-/- cells", "format": "cell-based, human", "conditions": "RPE1 p53-/- cells treated with aphidicolin followed by acute CDK1i", "description": "Immunofluorescence microscopy […] For detection of micronuclei, cells were fixed in 250 mM HEPES pH 7.5, 0.1% Triton X-100, 4% PFA in PBS for 20 minutes at 4 °C. Coverslips were then incubated for 5 min in 1x PBS with three buffer changes followed by incubation with 0.5% Triton X-100/ PBS for 10 min at room temperature. Coverslips were then incubated for 5 minutes in 1x PBS with three buffer changes. For EdU detection coverslips were transferred to a humidified chamber and incubated in EdU click it reaction buffer containing Alexafluor 488 azide for 1 h at room temperature followed by three 5 min washes in 1x PBS. Coverslips were then incubated in 5% FBS/PBS for 1 h followed by overnight incubation at 4 °C with primary antibody diluted in 5% FBS/PBS. Coverslips were then washed 3 × 5 min in 1x PBS followed by 1 h incubation at room temperature in 5% FBS/PBS containing secondary antibodies. Coverslips were incubated a further three times for 5 min in 1x PBS. Coverslips were then mounted on superfrost microscopy slides using Vectashield mounting medium with DAPI (Vector laboratories, […]). […] Cells were fixed in […] for 15 min at room temperature, followed by 3 × 5 min washes in 1xPBS. Coverslips were then incubated in 0.5% Triton-X/PBS for 10 min at room temperature, followed by a further 3 × 5 min 1xPBS washes. Coverslips were then incubated in blocking buffer (2% BSA, 0.05% Tween-20) for 1 h at room temperature, followed by incubation in respective primary antibodies overnight at 4 °C. Coverslips were then washed 3x for 5 min in 1x PBS followed by incubation for 1 h at room temperature in blocking buffer containing secondary antibodies. Coverslips were then washed 3x for 5 min in 1x PBS and mounted with Vectashield PLUS antifade mounting medium with DAPI (Vector laboratories, […]). Images were acquired using a Zeiss Axio Observer Z1 MarianasTM Microscope attached with a CSU-SoRa spinning disk unit using either a Photometrics Kinetix sCMOS camera built by Intelligent Imaging Innovations (3i) or a Zeiss Axio Observer Z1 MarianasTM Microscope attached with a CSUX1 spinning disk unit and Hamamatsu Flash 4 CMOS camera built by Intelligent Imaging Innovations (3i) or using an Opera Phenix Plus high content imaging system (Revvity). In each case 405, 488 and 640 laser lines were used in addition to DAPI, GFP/FITC, iRFP/CY5 emission filters. Quantification was carried out using FIJI (ImageJ, RRID:SCR_003070) software, CellProfiler (Broad Institute), Harmony (Revvity) or using […] Microsystems). Images of mitotic cells were analysed in 3D with maximum Z projections used for representative images in the manuscript to assist with visualisation.For interphase cells 2D images were analysed."}},
  "data": [
    {"smiles": "O=C1NC(=NCc2cccs2)S/C1=C\\c1ccc2ncccc2c1", "note": "[CDK1i]", "values": [
      {"measurement": "chromatin residency of eGFP-SLX4 and MUS81", "setting": "eGFP-SLX4 and MUS81", "result": "markedly impaired chromatin residency of eGFP-SLX4 and MUS81"},
      {"measurement": "MUS81 and TOPBP1 foci formation in prometaphase", "setting": "RPE1 p53-/- cells", "result": "impairment of MUS81 and TOPBP1 foci formation in prometaphase cells"}
    ]}
  ]
}
